# Results: patent US20140173774A1, “SOYBEAN TRAN[…] EFFICIENT AND HIGH-[…] PRODUCTION” (Dow AgroSciences LLC, priority 2012, published 2014)
# Columns and labels:
# [1] = tested on: un-transformed soybean explants; experiment: Glyphosate dose response study on un-transformed soybean explants in tissue culture; settings: for Number of Explants at Various Stages of Selection: End of SE-2 / Number of Explants at Various Stages of Selection: SE-1 / Number of Explants at Various Stages of Selection: SE-2 / Number of Explants at Various Stages of Selection: SI-2: 49 explants at CC
# Experimental: Initially, a dose response study was completed. To test the effect of glyphosate on the explants, glyphosate was added to media used from the shoot initiation stage and onwards. Glyphosate was tested from the range of 0.025-0.2 mM. Incorporation of glyphosate in tissue culture media within this concentration range has been reported in soybean (Clemente et al, 2000; Hinchee et al, 1996; Martinell et al, 2006; Martinell et al, 1999; Martinell et al, 2002), tobacco (Singer et al, 1985), cotton (Zhao et al, 2006) and wheat (Hu et al, 2003). Five concentrations of glyphosate were tested for culturing of un-transformed soybean explants. The concentrations incorporated into the SI-2 media were 0.025 mM, 0.05 mM, 0.075 mM, 0.1 mM and 0.2 mM. The un-transformed soybean explants were maintained on the same rate of glyphosate selection for all the successive stages of subculture from SI-2 media to the completion of the tissue culturing protocol. The numbers of healthy explants were counted at each subculture stage. Dead explants were discarded and healthy explants were subcultured further onto appropriate media.
# Growth of the explants was also retarded on glyphosate containing media. Next, the cotyledons were removed and the explants were subcultured from SI-2 to SE media. At the end of another two weeks of selection on SE media, significant differences in the growth of the explants were observed when the explants were exposed to different levels of glyphosate. The retarded growth of the explants was proportionate to the increasing dose of glyphosate. Similarly the number of dead explants was also proportional to the increasing dose of glyphosate. The number of dead explants increased as the dose of glyphosate was increased. […] Subsequently, three different concentrations of glyphosate (e.g., 0.025 mM, 0.05 mM and 0.1 mM) were incorporated into the selection schemes for Agrobacterium-mediated transformation of the soybean split-seed explants comprising a portion of an embryonic axis.
# [2] = tested on: soybean explants; experiment: Glyphosate selection of split-seed explants transformed with pDAB107553; parameters: species or system Glycine max cv. Maverick
# Experimental: The novel Agrobacterium-mediated soybean split-seed comprising a portion of an embryonic axis transformation method described in Example 2 was used to transform mature soybean (Glycine max) cv. Maverick seeds with an Agrobacterium strain harboring pDAB 107553. Three different concentrations of glyphosate (e.g., 0.025 mM, 0.05 mM and 0.1 mM) were incorporated into the selection schemes for the soybean split-seed comprising a portion of an embryonic axis transformation method.
# As the transformation experiment progressed through various subculture stages, the health of the soybean explants deteriorated. […] The intensity of cotyledon yellowing was more prominent in soybean explants cultured on greater rates of glyphosate (FIG. 9).
# The surface of the explants was turning soft and creamy in consistency. The softening effect was very pronounced at the end of SE-1 stage onwards.
structure (smiles),measurement,setting,value
O=C(O)CNCP(=O)(O)O [glyphosate],Number of Explants at Various Stages of Selection: End of SE-2,[1]; 0.025 mM glyphosate,0
same,Number of Explants at Various Stages of Selection: SE-1,[1]; 0.025 mM glyphosate,41
same,Number of Explants at Various Stages of Selection: SE-2,[1]; 0.025 mM glyphosate,38
same,Number of Explants at Various Stages of Selection: SI-2,[1]; 0.025 mM glyphosate,43
same,Number of Explants at Various Stages of Selection: End of SE-2,[1]; 0.05 mM glyphosate,0
same,Number of Explants at Various Stages of Selection: SE-1,[1]; 0.05 mM glyphosate,45
same,Number of Explants at Various Stages of Selection: SE-2,[1]; 0.05 mM glyphosate,38
same,Number of Explants at Various Stages of Selection: SI-2,[1]; 0.05 mM glyphosate,45
same,Number of Explants at Various Stages of Selection: End of SE-2,[1]; 0.075 mM glyphosate,0
same,Number of Explants at Various Stages of Selection: SE-1,[1]; 0.075 mM glyphosate,45
same,Number of Explants at Various Stages of Selection: SE-2,[1]; 0.075 mM glyphosate,21
same,Number of Explants at Various Stages of Selection: SI-2,[1]; 0.075 mM glyphosate,47
same,Number of Explants at Various Stages of Selection: End of SE-2,[1]; 0.1 mM glyphosate,0
same,Number of Explants at Various Stages of Selection: SE-1,[1]; 0.1 mM glyphosate,41
same,Number of Explants at Various Stages of Selection: SE-2,[1]; 0.1 mM glyphosate,13
same,Number of Explants at Various Stages of Selection: SI-2,[1]; 0.1 mM glyphosate,44
same,Number of Explants at Various Stages of Selection: End of SE-2,[1]; 0.2 mM glyphosate,0
same,Number of Explants at Various Stages of Selection: SE-1,[1]; 0.2 mM glyphosate,31
same,Number of Explants at Various Stages of Selection: SE-2,[1]; 0.2 mM glyphosate,1
same,Number of Explants at Various Stages of Selection: SI-2,[1]; 0.2 mM glyphosate,42
same,explant survival at the end of SE-2,"[1]; all levels of glyphosate tested, after six weeks on selection",all of the explants were dead
same,extent of yellowness of the cotyledons,"[1]; end of culturing on SI-2 media, about 2 weeks",directly proportional to the dose of glyphosate
same,growth of the explants,[1]; glyphosate containing SI-2 media,retarded
same,explants survived at the end of SE-1,"[1]; highest dose, 0.2 mM",one
same,explant survival after 6 weeks of glyphosate selection,"[1]; lowest dose tested, 0.025 mM",none of the soybean explants were able to survive
same,yellowing of the cotyledons,"[2]; after first selection cycle, two weeks on SI-2 media",yellowing of the cotyledons was noted
same,adverse physiological effects on explants,"[2]; highest level, 0.1 mM, of 0.025, 0.05 and 0.1 mM",greatest adverse physiological effects
same,softening of explant tissue,"[2]; media containing glyphosate, pronounced from end of SE-1",softening on the surfaces of the plant tissues
